The source of these data is ChEMBL document CHEMBL3352567, “Radiosynthesis and ex vivo evaluation of [(18)F]-(S)-3-(6-(3-fluoropropoxy)benzo[d]isoxazol-3-yl)-5-(methoxymethyl)oxazolidin-2-one for imaging MAO-B with PET” (Bioorg Med Chem Lett, 2015).

The test system of data set [1] is Cerebellum. Description: Drug uptake in conscious Sprague-Dawley rat cerebellum at < 10 nmol/kg, tail-vein injections at 15 mins in presence of 2 mg/kg, ip L-deprenyl inhibitor for 1 hr. It is filed as ADME, organism-based. Details: dose 2 mg/kg, route intraperitoneal. As to conditions: in vivo, 0.25 h.
The test system of data set [2] is Brain. Kind of data set: Drug uptake in conscious Sprague-Dawley rat brain region at < 10 nmol/kg, tail-vein injections at 15 mins in presence of 2 mg/kg, ip L-deprenyl inhibitor for 1 hr. Details: dose 2 mg/kg, route intraperitoneal. As to conditions: in vivo, 0.25 h. It is filed as ADME, organism-based.
The test system of data set [3] is Striatum. Description: Drug uptake in conscious Sprague-Dawley rat striatum at < 10 nmol/kg, tail-vein injections at 40 mins in presence of 2 mg/kg, ip L-deprenyl inhibitor for 1 hr. It is filed as ADME, organism-based. Details: dose 2 mg/kg, route intraperitoneal. The note with it: in vivo.
The subject of data set [4] is Cortex. Kind of data set: Drug uptake in conscious Sprague-Dawley rat cortex at < 10 nmol/kg, tail-vein injections at 40 mins in presence of 2 mg/kg, ip L-deprenyl inhibitor for 1 hr. Type of data set: ADME, organism-based. Details: dose 2 mg/kg, route intraperitoneal. As to conditions: in vivo.
Data set [5] has as its system Cerebellum. Description: Drug uptake in conscious Sprague-Dawley rat cerebellum at < 10 nmol/kg, tail-vein injections at 40 mins in presence of 2 mg/kg, ip L-deprenyl inhibitor for 1 hr. Type of data set: ADME, organism-based. Details: dose 2 mg/kg, route intraperitoneal. The note with it: in vivo.
Data set [6] concerns Brain. Kind of data set: Drug uptake in conscious Sprague-Dawley rat brain region at < 10 nmol/kg, tail-vein injections at 40 mins in presence of 2 mg/kg, ip L-deprenyl inhibitor for 1 hr. Type of data set: ADME, organism-based. Details: dose 2 mg/kg, route intraperitoneal. As to conditions: in vivo.
The nature of data set [7]: Plasma concentration in conscious Sprague-Dawley rat plasma assessed as radiotracer at < 10 nmol/kg, tail-vein injections at 2 mins. It is filed as ADME. The note with it: iv, read-out: Stability.
Data set [8] in a line: Plasma concentration in conscious Sprague-Dawley rat plasma assessed as radiotracer at < 10 nmol/kg, tail-vein injections at 40 mins. It is filed as ADME, cell-free. As to conditions: iv, read-out: Stability.
Data set [9] concerns Bone. Kind of data set: Drug metabolism in conscious Sprague-Dawley rat bone assessed as parent drug level at < 10 nmol/kg, tail-vein injections at 2 mins. It is filed as ADME, tissue-based, Bone element. The note with it: in vivo, iv.
For data set [10], the system named is Bone. Kind of data set: Drug metabolism in conscious Sprague-Dawley rat bone assessed as parent drug level at < 10 nmol/kg, tail-vein injections at 40 mins. It is filed as ADME, tissue-based, Bone element. As to conditions: in vivo, iv.
The test system of data set [11] is Striatum. Kind of data set: Drug uptake in conscious Sprague-Dawley rat striatum at < 10 nmol/kg, tail-vein injections at 2 mins. The note with it: in vivo, iv. It is filed as ADME, tissue-based.
Data set [12] concerns Cortex. Kind of data set: Drug uptake in conscious Sprague-Dawley rat cortex at < 10 nmol/kg, tail-vein injections at 2 mins. It is filed as ADME, tissue-based. As to conditions: in vivo, iv.
The test system of data set [13] is Cerebellum. Description: Drug uptake in conscious Sprague-Dawley rat cerebellum at < 10 nmol/kg, tail-vein injections at 2 mins. The note with it: in vivo, iv. It is filed as ADME, tissue-based.
The subject of data set [14] is Brain. Description: Drug uptake in conscious Sprague-Dawley rat brain region at < 10 nmol/kg, tail-vein injections at 2 mins. Type of data set: ADME, tissue-based. As to conditions: in vivo, iv.
The subject of data set [15] is Striatum. Description: Drug uptake in conscious Sprague-Dawley rat striatum at < 10 nmol/kg, tail-vein injections at 15 mins. It is filed as ADME, tissue-based. As to conditions: in vivo, iv, 0.25 h.
Data set [16] deals with Cortex. Kind of data set: Drug uptake in conscious Sprague-Dawley rat cortex at < 10 nmol/kg, tail-vein injections at 15 mins. It is filed as ADME, tissue-based. The note with it: in vivo, iv, 0.25 h.
Data set [17] deals with Cerebellum. Kind of data set: Drug uptake in conscious Sprague-Dawley rat cerebellum at < 10 nmol/kg, tail-vein injections at 15 mins. As to conditions: in vivo, iv, 0.25 h. Type of data set: ADME, tissue-based.
In data set [18] the test system is Brain. Description: Drug uptake in conscious Sprague-Dawley rat brain region at < 10 nmol/kg, tail-vein injections at 15 mins. The note with it: in vivo, iv, 0.25 h. Type of data set: ADME, tissue-based.
The subject of data set [19] is Striatum. Kind of data set: Drug uptake in conscious Sprague-Dawley rat striatum at < 10 nmol/kg, tail-vein injections at 40 mins. Type of data set: ADME, tissue-based. As to conditions: in vivo, iv.
Data set [20] concerns Cortex. Kind of data set: Drug uptake in conscious Sprague-Dawley rat cortex at < 10 nmol/kg, tail-vein injections at 40 mins. Type of data set: ADME, tissue-based. As to conditions: in vivo, iv.
For data set [21], the system named is Cerebellum. Kind of data set: Drug uptake in conscious Sprague-Dawley rat cerebellum at < 10 nmol/kg, tail-vein injections at 40 mins. Type of data set: ADME, tissue-based. As to conditions: in vivo, iv.
In data set [22] the test system is Brain. Description: Drug uptake in conscious Sprague-Dawley rat brain region at < 10 nmol/kg, tail-vein injections at 40 mins. It is filed as ADME, tissue-based. As to conditions: in vivo, iv.
For data set [23], the system named is Striatum. Kind of data set: Drug uptake in conscious Sprague-Dawley rat striatum at < 10 nmol/kg, tail-vein injections at 15 mins in presence of 2 mg/kg, ip L-deprenyl inhibitor for 1 hr. The note with it: in vivo, 0.25 h. Type of data set: ADME, organism-based. Details: dose 2 mg/kg, route intraperitoneal.
Data set [24] concerns Cortex. Kind of data set: Drug uptake in conscious Sprague-Dawley rat cortex at < 10 nmol/kg, tail-vein injections at 15 mins in presence of 2 mg/kg, ip L-deprenyl inhibitor for 1 hr. As to conditions: in vivo, 0.25 h. Details: dose 2 mg/kg, route intraperitoneal. Type of data set: ADME, organism-based.
The target of data set [25] is T1, Amine oxidase [flavin-containing] B (Homo sapiens, UniProt P27338).
T1 sequence (P27338 whole entry): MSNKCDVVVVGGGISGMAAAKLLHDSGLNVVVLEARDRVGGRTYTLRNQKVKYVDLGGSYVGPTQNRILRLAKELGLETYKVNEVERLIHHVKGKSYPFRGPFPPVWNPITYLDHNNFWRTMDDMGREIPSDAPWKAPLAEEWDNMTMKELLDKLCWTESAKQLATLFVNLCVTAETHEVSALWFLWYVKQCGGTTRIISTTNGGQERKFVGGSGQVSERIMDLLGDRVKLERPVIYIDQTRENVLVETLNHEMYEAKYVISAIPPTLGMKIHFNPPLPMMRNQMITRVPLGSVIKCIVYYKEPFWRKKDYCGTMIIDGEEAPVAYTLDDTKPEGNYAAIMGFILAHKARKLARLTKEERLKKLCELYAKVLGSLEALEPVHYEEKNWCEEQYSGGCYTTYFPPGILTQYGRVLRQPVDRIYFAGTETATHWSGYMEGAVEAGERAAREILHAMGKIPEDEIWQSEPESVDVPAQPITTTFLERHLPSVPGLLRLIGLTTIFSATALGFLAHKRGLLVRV
Description: Inhibition of human recombinant MAO-B by luminescence analysis.

For the next data set, the species on record is Homo sapiens. Kind of data set: Selectivity index, ratio of IC50 for human recombinant MAO-B to IC50 for human recombinant MAO-A.
A short description of data set [26]: n-Octanol-phosphate buffered saline distribution coefficient, log D of the compound at pH 7.4 by shake flask method. It is filed as physicochemical.

SMILES strings stand for the structures.

For `COC[C@@H]1CN(c2noc3cc(OCCC[18F])ccc23)C(=O)O1`, the SUV with Cerebellum [1] was 0.5; in the data set on Brain [2], 0.5; in the data set with Striatum [3], 0.2; in the data set on Cortex [4], 0.2; in the data set on Cerebellum [5] it was 0.2; in the data set on Brain [6], 0.2. Moreover, the SUV came out at 0.45 with Bone [9]; 3.1 in the data set on Bone [10]; 1.7 with Striatum [11]; 1.7 with Cortex [12]; 1.7 in the data set with Cerebellum [13]; 1.7 in the data set with Brain [14]. Besides, the SUV in the data set with Striatum [15] was 0.51; with Cortex [16], 0.51; in the data set on Cerebellum [17] it was 0.51; in the data set with Brain [18], 0.51; with Striatum [19], 0.19; in the data set with Cortex [20] it was 0.19. Further, the SUV with Cerebellum [21] amounted to 0.19; with Brain [22], 0.19; in the data set on Striatum [23], 0.5; in the data set with Cortex [24], 0.5. Further, the remaining at 2 min in [7] amounted to 90%. The remaining at 40 min in data set [8] came to 33%.
Regarding `COC[C@@H]1CN(c2noc3cc(OCCCCCF)ccc23)C(=O)O1`, the IC50 in data set [25] was determined as 110 nM. Moreover, the Ratio IC50 in the data set filed under Homo sapiens is 7730.
Consider `COC[C@@H]1CN(c2noc3cc(OCCCF)ccc23)C(=O)O1`, for which, in [25], the IC50 stood at 330 nM. In addition, in the data set filed under Homo sapiens, the Ratio IC50 was 6. Further, the logD in data set [26] turned out to be 2.6.
Taken in the same sequence, the figures for `COC[C@@H]1CN(c2noc3cc(OCCCC(F)(F)F)ccc23)C(=O)O1` were 47 nM, 4680 and 3.34.
On to `COC[C@@H]1CN(c2noc3cc(OCCCCF)ccc23)C(=O)O1`, for which the half-inhibitory concentration (IC50) in [25] amounted to 120 nM. Moreover, in the data set listed under Homo sapiens, the Ratio IC50 is 54.

For orientation: IC50 means the point on the concentration scale where inhibition reaches its midpoint. In general, logD refers to lipophilicity at a set pH, counting ionised and neutral species. Higher therefore signals higher lipophilicity.
